{
  "source": "patent US20250075056A1",
  "about": "“IMIDAZOLYSIS OF POLYESTERS AND POLYURETHANES” (The Board of Trustees of The University of Alabama, priority 2023, published 2025)",
  "key": {"[1]": {"test": "Solubility of TBIs in common solvents", "assay_type": "physicochemical"}, "[2]": {"settings": "imidazole reagent, literature refs 58-60, cited from earlier work"}, "[3]": {"settings": "organic solvent or mixture, solvent Ethanol, read-out: Solubility in Ethanol"}, "[4]": {"settings": "solvent DI Water, read-out: Solubility in DI Water"}},
  "note": "Like-named read-outs stand apart in the source and are kept apart here.",
  "data": [
    {"compound": "O=C(c1ccc(C(=O)n2ccnc2)cc1)n1ccnc1", "note": "[1b, 1,1′-(1,4-Phenylene)bis[1-(1H-imidazol-1-yl)methanone]]", "values": [
      {"measurement": "Solubility on contact with H2O", "setting": "[1]; DI H2O", "value": "solubilize"},
      {"measurement": "solubility", "setting": "[1]; [3]", "value": "> 1000", "unit": "µg/mL"},
      {"measurement": "solubility", "setting": "[1]; [4]", "value": "> 1000", "unit": "µg/mL"}
    ]},
    {"compound": "Cc1ncc[nH]1", "note": "[2a, 2-Methyl imidazole]", "values": [
      {"measurement": "pKa", "setting": "[2]", "value": "7.85-8.10"},
      {"measurement": "pKa", "setting": "[2]; listed as 2-methylimidazole", "value": 8.1}
    ]},
    {"compound": "Cc1nccn1C(=O)c1ccc(C(=O)n2ccnc2C)cc1", "note": "[2b]", "values": [
      {"measurement": "solubility", "setting": "[1]; [3]", "value": "> 1000", "unit": "µg/mL"},
      {"measurement": "solubility", "setting": "[1]; [4]", "value": "> 1000", "unit": "µg/mL"}
    ]},
    {"compound": "CCc1ncc[nH]1", "note": "[3a, 2-Ethyl imidazole]", "values": [
      {"measurement": "pKa", "setting": "[2]", "value": "7.99-8"}
    ]},
    {"compound": "CCc1nccn1C(=O)c1ccc(C(=O)n2ccnc2CC)cc1", "note": "[3b]", "values": [
      {"measurement": "solubility", "setting": "[1]; [3]", "value": "> 1000", "unit": "µg/mL"},
      {"measurement": "solubility", "setting": "[1]; [4]", "value": "> 1000", "unit": "µg/mL"}
    ]},
    {"compound": "Cc1c[nH]cn1", "note": "[4a, 4-Methyl imidazole]", "values": [
      {"measurement": "pKa", "setting": "[2]", "value": "7.69-7.80"}
    ]},
    {"compound": "Cc1cn(C(=O)c2ccc(C(=O)n3cnc(C)c3)cc2)cn1", "note": "[4b]", "values": [
      {"measurement": "solubility", "setting": "[1]; [3]", "value": "> 1000", "unit": "µg/mL"},
      {"measurement": "solubility", "setting": "[1]; [4]", "value": "> 1000", "unit": "µg/mL"}
    ]},
    {"compound": "CC(C)c1ncc[nH]1", "note": "[5a, 2-Isopropyl imidazole]", "values": [
      {"measurement": "pKa", "setting": "[2]", "value": 7.97}
    ]},
    {"compound": "CC(C)c1nccn1C(=O)c1ccc(C(=O)n2ccnc2C(C)C)cc1", "note": "[5b]", "values": [
      {"measurement": "solubility", "setting": "[1]; [3]", "value": "< 1000", "unit": "µg/mL"},
      {"measurement": "solubility", "setting": "[1]; [4]", "value": "< 1000", "unit": "µg/mL"}
    ]},
    {"compound": "Cc1nc(C)c(C)[nH]1", "note": "[6a, 2,4,5-Trimethyl imidazole]", "values": [
      {"measurement": "pKa", "setting": "[2]", "value": 8.92}
    ]},
    {"compound": "Cc1nc(C)n(C(=O)c2ccc(C(=O)n3c(C)nc(C)c3C)cc2)c1C", "note": "[6b]", "values": [
      {"measurement": "solubility", "setting": "[1]; [3]", "value": "> 1000", "unit": "µg/mL"},
      {"measurement": "solubility", "setting": "[1]; [4]", "value": "> 1000", "unit": "µg/mL"}
    ]},
    {"compound": "CCc1nc(C)c[nH]1", "note": "[7a, 2-Ethyl-4-methyl imidazole]", "values": [
      {"measurement": "pKa", "setting": "[2]", "value": 8.68}
    ]},
    {"compound": "CCc1nc(C)cn1C(=O)c1ccc(C(=O)n2cc(C)nc2CC)cc1", "note": "[7b]", "values": [
      {"measurement": "solubility", "setting": "[1]; [3]", "value": "< 1000", "unit": "µg/mL"},
      {"measurement": "solubility", "setting": "[1]; [4]", "value": "> 1000", "unit": "µg/mL"}
    ]},
    {"compound": "c1ccc(-c2ncc[nH]2)cc1", "note": "[8a, 2-Phenyl imidazole]", "values": [
      {"measurement": "pKa", "setting": "[2]", "value": 6.44}
    ]},
    {"compound": "O=C(c1ccc(C(=O)n2ccnc2-c2ccccc2)cc1)n1ccnc1-c1ccccc1", "note": "[8b]", "values": [
      {"measurement": "Solubility in typical aromatic organic solvents", "setting": "[1]; e.g., toluene, xylene", "value": "moderately soluble"},
      {"measurement": "solubility", "setting": "[1]; [3]", "value": "< 1000", "unit": "µg/mL"},
      {"measurement": "solubility", "setting": "[1]; [4]", "value": "< 1000", "unit": "µg/mL"}
    ]},
    {"compound": "Imidazole [1a]", "values": [
      {"measurement": "pKa", "setting": "[2]", "value": "~7"}
    ]}
  ]
}
